# Source: PubChem BioAssay AID328 (DTP/NCI, 2004)
# Where “and” joins values, the source holds several entries; their conditions need not be identical. Identical values can stand only once. Inconclusive results and toxic doses are left out.
# Test system: BDF1 mice, P388 leukemia ip, median survival T/C
# Experiment: NCI In Vivo Anticancer Drug Screen. Data for tumor model P388 Leukemia (intraperitoneal) in B6D2F1 (BDF1) mice
# Conditions: endpoint: median survival time, higher = longer survival
# Method in brief: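 Read-out is survival of treated animals expressed relative to the vehicle group, as a T/C ratio.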
# [1] = dose: 100.0 mg/kg/injection, schedule: Q04DX003 (ip), vehicle: Klucel (hydroxypropylcellulose) (HPC)
# [2] = dose: 200.0 mg/kg/injection, schedule: Q04DX003 (ip), vehicle: Klucel (hydroxypropylcellulose) (HPC)
# [3] = dose: 400.0 mg/kg/injection, schedule: Q04DX003 (ip), vehicle: Klucel (hydroxypropylcellulose) (HPC)
# [4] = dose: 100.0 mg/kg/injection, schedule: Q01DX009 (ip), vehicle: saline with Tween-80
# [5] = dose: 50.0 mg/kg/injection, schedule: Q04DX003 (ip), vehicle: saline with Tween-80
# [6] = dose: 100.0 mg/kg/injection, schedule: Q04DX003 (ip), vehicle: saline with Tween-80
# [7] = dose: 200.0 mg/kg/injection, schedule: Q04DX003 (ip), vehicle: saline with Tween-80
# [8] = dose: 50.0 mg/kg/injection, schedule: Q01DX009 (ip), vehicle: saline with Tween-80
# [9] = dose: 200.0 mg/kg/injection, schedule: Q01DX009 (ip), vehicle: saline with Tween-80
smiles,measurement,setting,value
Cc1ccc(C(=O)C[S+](C)C)c(C)c1,T/C,"dose: 10.46 mg/kg/injection, schedule: Q01DX001 (ip), vehicle: saline",109 % of control
same,T/C,"dose: 12.5 mg/kg/injection, schedule: Q01DX009 (ip), vehicle: saline",100 % of control
same,T/C,"dose: 20.93 mg/kg/injection, schedule: Q01DX001 (ip), vehicle: saline",100 % of control
same,T/C,"dose: 25.0 mg/kg/injection, schedule: Q01DX009 (ip), vehicle: saline",105 % of control
same,T/C,"dose: 41.87 mg/kg/injection, schedule: Q01DX001 (ip), vehicle: saline",100 % of control
same,T/C,"dose: 50.0 mg/kg/injection, schedule: Q01DX009 (ip), vehicle: saline",100 % of control
same,T/C,"dose: 56.25 mg/kg/injection, schedule: Q04DX003 (ip), vehicle: saline",108 % of control
same,T/C,"dose: 75.0 mg/kg/injection, schedule: Q01DX009 (ip), vehicle: saline",100 % of control
same,T/C,"dose: 112.5 mg/kg/injection, schedule: Q04DX003 (ip), vehicle: saline",95 % of control
OCc1cc2ccccc2cc1O,T/C,[1],90 % of control
same,T/C,[2],109 % of control
same,T/C,[3],104 % of control
O=C(NCCc1c[nH]c2ccccc12)c1cccnc1,T/C,"dose: 100.0 mg/kg/injection, schedule: Q01DX001 (ip), vehicle: saline",104 % of control
same,T/C,"dose: 200.0 mg/kg/injection, schedule: Q01DX001 (ip), vehicle: saline",100 % of control
same,T/C,"dose: 400.0 mg/kg/injection, schedule: Q01DX001 (ip), vehicle: saline",95 % of control
CCCCCn1c(C)cc(/C=C\c2ccc3cc(C)ccc3[n+]2C)c1C,T/C,"dose: 0.22 mg/kg/injection, schedule: Q01DX009 (ip), vehicle: saline",105 % of control and 109 % of control
same,T/C,"dose: 0.33 mg/kg/injection, schedule: Q01DX009 (ip), vehicle: saline",95 % of control and 110 % of control
same,T/C,"dose: 0.5 mg/kg/injection, schedule: Q01DX009 (ip), vehicle: saline",109 % of control
same,T/C,"dose: 0.5 mg/kg/injection, schedule: Q04DX003 (ip), vehicle: saline",118 % of control
same,T/C,"dose: 0.75 mg/kg/injection, schedule: Q01DX009 (ip), vehicle: saline",90 % of control
same,T/C,"dose: 0.88 mg/kg/injection, schedule: Q04DX003 (ip), vehicle: saline",108 % of control
same,T/C,"dose: 1.0 mg/kg/injection, schedule: Q04DX003 (ip), vehicle: saline",120 % of control
same,T/C,"dose: 1.32 mg/kg/injection, schedule: Q04DX003 (ip), vehicle: saline",112 % of control
same,T/C,"dose: 1.5 mg/kg/injection, schedule: Q01DX009 (ip), vehicle: saline",90 % of control
same,T/C,"dose: 2.0 mg/kg/injection, schedule: Q04DX003 (ip), vehicle: saline",104 % of control and 120 % of control
same,T/C,"dose: 3.0 mg/kg/injection, schedule: Q04DX003 (ip), vehicle: saline",116 % of control
CCCCN(C)N=Nc1ccccc1C(N)=O,T/C,"dose: 50.0 mg/kg/injection, schedule: Q04DX003 (ip), vehicle: Klucel (hydroxypropylcellulose) (HPC)",100 % of control
same,T/C,[4],120 % of control
same,T/C,[1],97 % of control
same,T/C,[2],109 % of control
same,T/C,[3],103 % of control
Cc1c(/C=C(\C#N)c2ccc([N+](=O)[O-])cc2)c(=O)n(-c2ccccc2)n1C,T/C,"dose: 100.0 mg/kg/injection, schedule: Q04DX003 (ip), vehicle: gum acacia",103 % of control
same,T/C,"dose: 200.0 mg/kg/injection, schedule: Q04DX003 (ip), vehicle: gum acacia",100 % of control
same,T/C,"dose: 400.0 mg/kg/injection, schedule: Q04DX003 (ip), vehicle: gum acacia",100 % of control
C=CCOc1ccccn1,T/C,[5],90 % of control
same,T/C,[6],104 % of control
same,T/C,[7],113 % of control
O=C(/C=C/c1ccc(OCc2ccccc2)cc1)c1ccccn1,T/C,[8],97 % of control
same,T/C,[4],98 % of control
same,T/C,[9],96 % of control
CCCCn1nnc2c(NN)nc(N)nc21,T/C,"dose: 25.0 mg/kg/injection, schedule: Q01DX009 (ip), vehicle: saline with Tween-80",100 % of control
same,T/C,"dose: 25.0 mg/kg/injection, schedule: Q04DX003 (ip), vehicle: saline with Tween-80",100 % of control
same,T/C,[8],100 % of control
same,T/C,[5],100 % of control
same,T/C,[6],100 % of control
COc1ccc(C2C(C#N)=C(N)NC(=O)C2C(N)=O)cc1 (stereo not given),T/C,"dose: 50.0 mg/kg/injection, schedule: Q01DX005 (ip), vehicle: saline with Tween-80",92 % of control
same,T/C,"dose: 100.0 mg/kg/injection, schedule: Q01DX005 (ip), vehicle: saline with Tween-80",89 % of control
same,T/C,"dose: 200.0 mg/kg/injection, schedule: Q01DX005 (ip), vehicle: saline with Tween-80",92 % of control
C=C1C(=O)OC2/C=C(\CO)C(OC(C)=O)CC(O)/C(C)=C/C(OC(=O)C(C)CC)C12 (stereo not given),T/C,"dose: 6.25 mg/kg/injection, schedule: Q01DX009 (ip), vehicle: Klucel (hydroxypropylcellulose) (HPC)",110 % of control
same,T/C,"dose: 12.5 mg/kg/injection, schedule: Q01DX009 (ip), vehicle: Klucel (hydroxypropylcellulose) (HPC)",108 % of control
same,T/C,"dose: 25.0 mg/kg/injection, schedule: Q01DX009 (ip), vehicle: Klucel (hydroxypropylcellulose) (HPC)",119 % of control
same,T/C,"dose: 50.0 mg/kg/injection, schedule: Q01DX009 (ip), vehicle: Klucel (hydroxypropylcellulose) (HPC)",117 % of control
CC(=O)CC(C)=O.CC(=O)CC(C)=O.C[CH2][Sn][CH2]C,T/C,"dose: 12.5 mg/kg/injection, schedule: Q01DX001 (ip), vehicle: Klucel (hydroxypropylcellulose) (HPC)",116 % of control
CC(=O)n1cc(C2CC(=O)OC3=C2CC(=O)C(C)(C)C3)c2ccccc21 (stereo not given),T/C,[5],100 % of control
same,T/C,[6],88 % of control and 95 % of control
same,T/C,[7],94 % of control and 95 % of control
same,T/C,"dose: 400.0 mg/kg/injection, schedule: Q04DX003 (ip), vehicle: saline with Tween-80",94 % of control and 96 % of control
O=Cc1ccc2c(c1)OCCOCCOCCOCCO2,T/C,[8],104 % of control
same,T/C,[4],121 % of control
same,T/C,[9],117 % of control
NC(=O)NN=C1CSSC1,T/C,"dose: 0.78 mg/kg/injection, schedule: Q01DX009 (ip), vehicle: saline with Tween-80",103 % of control
same,T/C,"dose: 0.78 mg/kg/injection, schedule: Q04DX003 (ip), vehicle: saline with Tween-80",104 % of control
same,T/C,"dose: 1.56 mg/kg/injection, schedule: Q01DX009 (ip), vehicle: saline with Tween-80",94 % of control
same,T/C,"dose: 1.56 mg/kg/injection, schedule: Q04DX003 (ip), vehicle: saline with Tween-80",91 % of control
same,T/C,"dose: 3.12 mg/kg/injection, schedule: Q01DX009 (ip), vehicle: saline with Tween-80",92 % of control
same,T/C,"dose: 3.12 mg/kg/injection, schedule: Q04DX003 (ip), vehicle: saline with Tween-80",113 % of control
same,T/C,"dose: 6.25 mg/kg/injection, schedule: Q01DX009 (ip), vehicle: saline with Tween-80",92 % of control
same,T/C,"dose: 6.25 mg/kg/injection, schedule: Q04DX003 (ip), vehicle: saline with Tween-80",100 % of control
same,T/C,"dose: 12.5 mg/kg/injection, schedule: Q01DX009 (ip), vehicle: saline with Tween-80",94 % of control
same,T/C,"dose: 12.5 mg/kg/injection, schedule: Q04DX003 (ip), vehicle: saline with Tween-80",95 % of control
Cc1cc(O)c(NCCCN(C)C)c2c(=O)c3ccccc3sc12,T/C,[8],108 % of control
same,T/C,[9],115 % of control
CCCCCCCC/C=C\CCCCCCCC(=O)OCCCCCCCCCCCCCCC,T/C,"dose: 100.0 mg/kg/injection, schedule: Q04DX003 (ip), vehicle: saline",100 % of control
same,T/C,"dose: 200.0 mg/kg/injection, schedule: Q04DX003 (ip), vehicle: saline",100 % of control
same,T/C,"dose: 400.0 mg/kg/injection, schedule: Q04DX003 (ip), vehicle: saline",100 % of control
CNC=O,T/C,"dose: 7.5 mg/kg/injection, schedule: Q01DX010 (ip), vehicle: saline",100 % of control
same,T/C,"dose: 15.0 mg/kg/injection, schedule: Q01DX010 (ip), vehicle: saline",104 % of control and 109 % of control
same,T/C,"dose: 30.0 mg/kg/injection, schedule: Q01DX010 (ip), vehicle: saline",104 % of control and 118 % of control
same,T/C,"dose: 60.0 mg/kg/injection, schedule: Q01DX010 (ip), vehicle: saline",109 % of control and 113 % of control
same,T/C,"dose: 300.0 mg/kg/injection, schedule: Q01DX010 (ip), vehicle: saline",154 % of control
same,T/C,"dose: 455.0 mg/kg/injection, schedule: Q01DX010 (ip), vehicle: saline",154 % of control
same,T/C,"dose: 680.0 mg/kg/injection, schedule: Q01DX010 (ip), vehicle: saline",91 % of control
C=Cc1c(C)c(O)cc2c1CC[C@@H]1C(C)(C)[C@H](O)[C@H](O)C[C@@]21C,T/C,"dose: 100.0 mg/kg/injection, schedule: Q01DX009 (ip), vehicle: Klucel (hydroxypropylcellulose) (HPC)",102 % of control
same,T/C,"dose: 200.0 mg/kg/injection, schedule: Q01DX009 (ip), vehicle: Klucel (hydroxypropylcellulose) (HPC)",100 % of control
same,T/C,"dose: 400.0 mg/kg/injection, schedule: Q01DX009 (ip), vehicle: Klucel (hydroxypropylcellulose) (HPC)",113 % of control
